From patent US20110189095A1, “CRKL TARGETING PEPTIDES” (The Board of Regents, of the University of Texas System, priority 2008, published 2011)
One block for each compound: values may come before it. Ends that are not written are not given here.

How the values were obtained:
CRKL secretion = CRKL secretion inhibition study (immunoprecipitation from serum-free medium); assay type: cell-based; conditions: cells incubated with compound in serum-free medium for 9 hours
Protocol: Cells were synchronized for 24-48 hours in RPMI serum-free medium followed by a spin and filtration through a 0.22 μm filter, and pre-absorbed to control antibodies. An equal volume of PBS was added to the recovered supernatant prior to immunoprecipitating with the appropriate antibodies. Brefeldin A, glybenclamide, and thapsigargin were used for secretion inhibition studies. Cells were incubated with the compounds in serum-free medium for 9 hours prior to immunoprecipitation with the appropriate antibodies. No detergents were used in the immunoprecipitation studies. By using the methodology described above, CRKL is found in a free soluble state and not in vesicles.

[1] = system: human prostate cancer xenografts (DU145-derived); test: Therapy in tumor-bearing mice (tumor volume); assay type: in vivo, nude mice; conditions: equimolar amounts, systemically administered, vs untreated or vehicle
Excerpt: Finally, a pilot pre-clinical trial that included four cohorts of size-matched tumor-bearing mice was designed and conducted (FIG. 11). Animals received the following reagents: (i) the synthetic PSI domain-mimic peptide, (ii) the synthetic PSI domain-mimic peptide linked to a pro-apoptotic peptidomimetic (Arap et al., 2004; Ellerby et al., 1999; Kolonin et al., 2004; Zurita et al., 2004) in order to induce targeted apoptosis upon receptor-mediated internalization, (iii) the synthetic pro-apoptotic peptidomimetic alone, or (iv) vehicle alone. All peptides or peptidomimetics were administered at equimolar concentrations.
DU145 tumor-bearing mice were size-matched and divided into individual cohorts (n=4 mice per group). The tumor-homing peptide […] (SEQ ID NO:1) was synthesized fused with the proapoptotic motif D(KLAKLAK)2. Unconjugated peptide […] (SEQ ID NO:1) or D(KLAKLAK)2 served as controls. The synthetic peptides were systemically administered and tumor volumes measured as described (Arap et al., 1998; Arap et al., 2004).

rCRKL = target: T1, rCRKL (Homo sapiens, UniProt P46109); test: Peptide binding assay with recombinant His-tag proteins (ELISA); conditions: peptide coated on microtiter plates
T1 construct: The open reading frame of full-length CRKL cDNA (Invitrogen) was PCR-amplified and cloned in a pET28a (Novagen) expression vector; His-tag; made in house; host or cells: E. coli BL21
Protocol: (§1) Synthetic tumor-homing peptide ([…]; SEQ ID NO:1) or PSI-derived peptide (NSTFLQEGMPTSA; SEQ ID NO:23) were coated on microtiter plates followed by blocking, and washing. The following recombinant His-tag proteins were added to the coated plates: rCRKL, rCRKL-SH2 domain, rCRKL-SH3 (N) domain, and rCRKL-SH3 (C) domain. An unrelated control protein (α2-Heremans-Schmid glycoprotein; AHSG) served as a negative control. The mixtures were incubated, washed, and labeled with the appropriate antibodies. Secondary antibodies conjugated to horse-radish peroxidase (HRP) were added followed by adding TMB substrate (Calbiochem), and analyzed by an automated ELISA reader (Bio-Tek). To determine the inhibitory activity of the tumor-homing peptide, the PSI-derived peptide, or the phage clone displaying the corresponding tumor-homing peptide were incubated with the rCRKL-SH3 (C) domain. Unrelated cyclic peptide sequences and insertless phage (fd-tet) served as negative controls. The admixtures were incubated and added to wells coated with the tumor-homing peptide. After incubation, the wells were washed, labeled with the appropriate antibodies, and processed as above.

rCRKL-SH3 (C) domain [2] = target: T2, rCRKL-SH3 (C) domain (Homo sapiens, UniProt P46109); test: as above; conditions: peptide coated on microtiter plates
T2 construct: cDNAs corresponding to each of the SH domains were PCR-amplified and cloned into the Sac I and Xho I restriction sites; His-tag; made in house; host or cells: E. coli BL21
Protocol: as §1

rCRKL-SH3 (N) domain = target: T3, rCRKL-SH3 (N) domain (Homo sapiens, UniProt P46109); test: as above; conditions: peptide coated on microtiter plates
T3 construct: cDNAs corresponding to each of the SH domains were PCR-amplified and cloned into the Sac I and Xho I restriction sites; His-tag; made in house; host or cells: E. coli BL21
Protocol: as §1

rCRKL-SH3 (C) domain [3] = target: T2, rCRKL-SH3 (C) domain; test: Inhibition of rCRKL-SH3 (C) domain binding to coated tumor-homing peptide; conditions: inhibitor pre-incubated with rCRKL-SH3 (C)
Protocol: as §1

[4] = system: KS1767 and DU145 human tumor xenografts and EF43-FGF4 mouse mammary carcinoma; test: In vivo homing of targeted or control phage in mice bearing different tumor types; conditions: systemic administration; KS1767, DU145 and EF43-FGF4 models
Protocol: The tumor targeting attributes of CRKL-binding phage in tumor-bearing mice was evaluated next. First, phage constructs displaying either the selected CRKL-binding peptide or a panel of control (mutant or scrambled) peptides were designed and produced. Phage clones were tested in human tumor xenografts (Kaposi sarcoma KS1767 cells and prostate carcinoma DU145 cells) and an isogenic mouse tumor model (EF43-FGF4 mammary carcinoma).
In vivo targeting experiments with phage were performed as described (Hajitou et al., 2006; Arap et al., 1998; Arap et al., 2004; Kolonin et al., 2004; Marchio et al., 2004). Animals used in experiments were: Male nude mice bearing human DU145 xenografts or female nude mice with human Kaposi sarcoma KS1767-derived xenografts subcutaneously and immunocompetent Balb/c female mice bearing EF43-FGF4-derived breast tumors orthotopically in the mammary fat pad. Briefly, mice bearing tumors (˜8 mm) were anesthetized and injected intravenously via tail vein with 5×10^10 T.U. per mouse of wild-type […] (SEQ ID NO:1)-phage, or negative controls: fd-tet phage (insertless) and scrambled […] (SEQ ID NO:26)-phage, […] (SEQ ID NO:27)-phage, […] (SEQ ID NO:29)-phage, […] (SEQ ID NO:30)-phage or mutants […] (SEQ ID NO:25)-phage and […] (SEQ ID NO:28)-phage. Cohorts of two mice with size-matched tumors received each set of phage clones. After 24 hours, tumors were dissected from each mouse and phage recovered by bacterial infection and normalized by weight of tissue. The experiments were repeated twice for each tumor model. […] The fd phage served a negative control and the RGD-4C (Hajitou et al., 2006; Arap et al., 1998) served as a positive control. Only minimal background apoptosis (<1% of the total cells) were detected by TUNEL staining (Promega) on paraffin-embedded tumor tissue sections.

DU145 cells = test: Peptide internalization assay (WST-1 cell viability, annexin-V staining); assay type: cell-based, human
Protocol: The internalization capability of the tumor-homing peptide fused through a glycinylglycine bridge to a pro-apoptotic sequence was tested as described Arap et al., 2004; Ellerby et al., 1999; Kolonin et al., 2004; Zurita et al., 2004). The conjugated tumor-homing peptide, […] (SEQ ID NO:67)-D(KLAKLAK)2 or the untargeted control peptide D(KLAKLAK)2 were synthesized and increasing equimolar peptide concentrations were added to the DU145 cells. Cell viability was assayed by the WST-1 reagent (Roche) and annexin-V staining for apoptosis (Zurita et al., 2004; Cardo-Vila et al., 2003). For tumor-homing phage localization studies, cells were incubated with 10^9 T.U. tumor-homing ([…]; SEQ ID NO:1) or a negative control (fd-tet) phage for 6 and 24 hours. Wells were washed with 20 mM glycine to remove non-specific cell surface bound phage and then fixed with 4% paraformaldehyde. The non-permeabilized cells were incubated with rabbit anti-fd bacteriophage antibody (Sigma) for 2 hours at room temperature followed by 1 hour incubation with Cy3-labeled anti-rabbit IgG antibody (Jackson ImmunoResearch). Cells were again fixed with 4% paraformaldehyde and mounted in the presence of DAPI (Vector Laboratories) and images were acquired with an Olympus fluorescence microscope.

[5] = target: CRKL binding to β1 integrin (Homo sapiens, UniProt P46109); test: Protein-protein interaction between CRKL and β1 integrin, inhibition assay
Protocol: Phage binding assays on purified proteins were carried out as described (Giordano et al. 2001). Recombinant proteins were coated on microtiter wells as previous described (Cardo-Vila et al., 2003; Smith and Scott, 1993). Briefly, proteins were immobilized on microtiter wells overnight at 4° C. 50 μl of 1 μg/ml in PBS. Wells were washed twice with PBS, blocked with PBS containing 3% BSA for 2 hours at room temperature, and incubated with 10^9 T.U. wild-type tumor-homing phage ([…]; SEQ ID NO:1), scrambled phage ([…] (SEQ ID NO:26), […] (SEQ ID NO:27), […] (SEQ ID NO:29), […] (SEQ ID NO:30)), mutant phage ([…] (SEQ ID NO:25), […] (SEQ ID NO:28)), PSI-derived cyclic phage (CNSTFLQEGMPTSAC; SEQ ID NO:23) or fd-tet phage in 50 μl of PBS containing 1.5% BSA. After 1 hour at room temperature, wells were washed ten times with PBS and phage were recovered by bacterial infection. ELISA with polyclonal anti-CKRL confirmed the presence and concentration of the CKRL recombinant proteins on the wells. […] After 3 hours, binding of CKRL to integrins was detected by using an anti-CKRL antibody followed by an HRP-conjugated anti-rabbit IgG. […]

Chain of CRKL binding to β1 integrin (P46109 whole entry): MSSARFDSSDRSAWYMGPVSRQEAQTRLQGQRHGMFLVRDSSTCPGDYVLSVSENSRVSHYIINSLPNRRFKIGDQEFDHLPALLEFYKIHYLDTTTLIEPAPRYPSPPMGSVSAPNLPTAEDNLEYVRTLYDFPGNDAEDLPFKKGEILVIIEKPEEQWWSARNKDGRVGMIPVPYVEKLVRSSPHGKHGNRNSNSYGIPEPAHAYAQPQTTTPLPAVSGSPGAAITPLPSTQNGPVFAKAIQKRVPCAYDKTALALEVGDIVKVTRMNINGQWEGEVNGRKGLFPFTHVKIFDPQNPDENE
T2 sequence (P46109 235-296 limits assumed): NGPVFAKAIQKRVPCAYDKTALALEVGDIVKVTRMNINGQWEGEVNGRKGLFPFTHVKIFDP
T3 sequence (P46109 123-183 limits assumed): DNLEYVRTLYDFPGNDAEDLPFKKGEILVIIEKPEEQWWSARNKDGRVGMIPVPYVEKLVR
T1 sequence (P46109 whole entry): as the sequence (P46109 whole entry) above

Compound: C[C@H]1CCC/C=C/[C@@H]2C[C@H](O)C[C@H]2[C@H](O)/C=C/C(=O)O1 [brefeldin A]
- CRKL secretion / release (CRKL secretion): do not appear to inhibit

Compound: COc1ccc(Cl)cc1C(=O)NCCc1ccc(S(=O)(=O)NC(=O)NC2CCCCC2)cc1 [glybenclamide]
- CRKL secretion / release (CRKL secretion): does prevent

Compound: C/C=C(/C)C(=O)O[C@H]1C(C)=C2[C@H]([C@@H]1OC(=O)CCCCCCC)[C@@](C)(OC(C)=O)C[C@H](OC(=O)CCC)[C@@]1(O)[C@H]2OC(=O)[C@@]1(C)O [thapsigargin]
- CRKL secretion / release (CRKL secretion): do not appear to inhibit

Compound: D(KLAKLAK)2 [reference compound]
- tumor growth / tumor volume [1]: no differences in tumor volume

- binding to rCRKL (rCRKL): bound
- binding to rCRKL-SH3 (C) domain (rCRKL-SH3 (C) domain [2]): bound
- binding to rCRKL-SH3 (N) domain (rCRKL-SH3 (N) domain): bound
- inhibition of binding of the tumor-homing peptide to rCRKL-SH3 (C) domain (rCRKL-SH3 (C) domain [3]): inhibited
Compound: NSTFLQEGMPTSA (listed as Homo sapiens) [synthetic peptide derived from the native PSI domain of β1 integrin, residues 50 to 62]

Compound: YRCETDSPHEFHLWNTFCAM
- tumor homing / tumor targeting [4]: no tumor targeting activity

Compound: YRCETDSPHEFHLWNTMCAF
- tumor homing / tumor targeting [4]: no tumor targeting activity

Compound: YRCTLNSAFFWEDMTHECHA
- tumor homing / tumor targeting [4]: no tumor targeting

Compound: YRCTLNSPAAAEDMTHECHA
- tumor homing / tumor targeting [4]: no tumor targeting activity

Compound: YRCTLNSPFFWEDMTHECHAGG (SEQ ID NO:67)-D(KLAKLAK)2
- programmed cell death (annexin-V staining) (DU145 cells; DU145 cells): Programmed cell death was confirmed
- internalization (DU145 cells; DU145 cells, measured by cell viability and annexin-V): enables internalization
- cell killing (cell viability, WST-1) (DU145 cells; increasing equimolar concentrations, control D(KLAKLAK)2): Targeted cell killing relative to controls
- tumor growth / tumor volume [1]: Markedly reduced tumor growth
- tumor growth / tumor volume ([1]; listed as targeted pro-apoptotic peptidomimetic): significantly inhibited

Compound: YRECTDSPHEFHLWNTMCAF
- tumor homing / tumor targeting [4]: no tumor targeting

Compound: YRFCTSPFHEWHLENTDMCA
- tumor homing / tumor targeting [4]: no tumor targeting

- inhibition of CRKL binding to β1 integrin ([5]; up to 800 ηm): concentration-dependent inhibition
- IC50 ([5]; wells coated with α5β1 integrin): 20 nM
Compound: gst-PSI: recombinant gst fusion protein of the entire PSI domain of β1 integrin (CLKANAKSCGECIQAGPNCGWCTNSTFLQEGMPTSARCDDLEALKKKGC; cysteine pairing not given here; also: N-terminal GST fusion, not written)
